Values quoted from earlier work as cited in PubChem BioAssay AID1259409 (Chemical Carcinogenesis Research Information System (CCRIS), 2018).

Tested on: rodent chemically induced tumor inhibition, incidence and multiplicity
Test: CCRIS tumor inhibitor studies
Settings: for tumour outcome (control, treated, inhibition, significance): Dose [Inhibitor]: 0

For `C=CCSCC=C`, the “tumour outcome (control, treated, inhibition, significance)” value (Carcinogen: DIETHYLNITROSAMINE, 55-18-5, N-METHYL-N-NITROSOUREA, 684-93-5, N,N-DIBUTYLNITROSAMINE, 924-16-3, Carcinogen: DIETHYLNITROSAMINE, 55-18-5, N-METHYL-N-NITROSOUREA, 684-93-5, N,N-DIBUTYLNITROSAMINE, 924-16-3, 0.5% IN DIET BEGINNING POST CARCINOGEN TREATMENT AND CONTINUING TO WK 40 (STUDY DURATION: 40 WK), Route [Inhibitor]: ORAL, Species: RAT, Strain/Sex: F344/MALE, Target Tissue: Type of Lesion: LUNG: CARCINOMA, Dose [Carcinogen]: 100 MG/KG DIETHYLNITROSAMINE ONCE FOLLOWED BY 20 MG/KG N-METHYL-N-NITROSOUREA ON D 2, 5, 8 AND 11 THEN 0.05% N-N-DIBUTYL, Promoter: NONE USED) is given as 3/16 (19%), 0/18 (0%), 100%, not calculated, the “tumour outcome (control, treated, inhibition, significance)” value (Carcinogen: DIETHYLNITROSAMINE, 55-18-5, N-METHYL-N-NITROSOUREA, 684-93-5, N,N-DIBUTYLNITROSAMINE, 924-16-3, Carcinogen: DIETHYLNITROSAMINE, 55-18-5, N-METHYL-N-NITROSOUREA, 684-93-5, N,N-DIBUTYLNITROSAMINE, 924-16-3, 0.5% IN DIET BEGINNING POST CARCINOGEN TREATMENT AND CONTINUING TO WK 40 (STUDY DURATION: 40 WK), Route [Inhibitor]: ORAL, Species: RAT, Strain/Sex: F344/MALE, Target Tissue: Type of Lesion: THYROID: ADENOMA, Dose [Carcinogen]: 100 MG/KG DIETHYLNITROSAMINE ONCE FOLLOWED BY 20 MG/KG N-METHYL-N-NITROSOUREA ON D 2, 5, 8 AND 11 THEN 0.05% N-N-DIBUTYL, Promoter: NONE USED) is given as 8/16 (50%), 2/18 (11%), 78%, p<0.02 and the “tumour outcome (control, treated, inhibition, significance)” value (Carcinogen: DIETHYLNITROSAMINE, 55-18-5, N-METHYL-N-NITROSOUREA, 684-93-5, N,N-DIBUTYLNITROSAMINE, 924-16-3, Carcinogen: DIETHYLNITROSAMINE, 55-18-5, N-METHYL-N-NITROSOUREA, 684-93-5, N,N-DIBUTYLNITROSAMINE, 924-16-3, 0.5% IN DIET BEGINNING POST CARCINOGEN TREATMENT AND CONTINUING TO WK 40 (STUDY DURATION: 40 WK), Route [Inhibitor]: ORAL, Species: RAT, Strain/Sex: F344/MALE, Target Tissue: Type of Lesion: THYROID: CARCINOMA, Dose [Carcinogen]: 100 MG/KG DIETHYLNITROSAMINE ONCE FOLLOWED BY 20 MG/KG N-METHYL-N-NITROSOUREA ON D 2, 5, 8 AND 11 THEN 0.05% N-N-DIBUTYL, Promoter: NONE USED) is given as 2/16 (13%), 0/18 (0%), 100%, not calculated. For the same compound, the “tumour outcome (control, treated, inhibition, significance)” value (Carcinogen: DIETHYLNITROSAMINE, 55-18-5, N-METHYL-N-NITROSOUREA, 684-93-5, N,N-DIBUTYLNITROSAMINE, 924-16-3, Carcinogen: DIETHYLNITROSAMINE, 55-18-5, N-METHYL-N-NITROSOUREA, 684-93-5, N,N-DIBUTYLNITROSAMINE, 924-16-3, 0.5% IN DIET BEGINNING POST CARCINOGEN TREATMENT AND CONTINUING TO WK 40 (STUDY DURATION: 40 WK), Route [Inhibitor]: ORAL, Species: RAT, Strain/Sex: F344/MALE, Target Tissue: Type of Lesion: URINARY BLADDER: CARCINOMA, Dose [Carcinogen]: 100 MG/KG DIETHYLNITROSAMINE ONCE FOLLOWED BY 20 MG/KG N-METHYL-N-NITROSOUREA ON D 2, 5, 8 AND 11 THEN 0.05% N-N-DIBUTYL, Promoter: NONE USED) was 1/16 (6%), 0/18 (0%), 100%, not calculated, the “tumour outcome (control, treated, inhibition, significance)” value (Carcinogen: DIETHYLNITROSAMINE, 55-18-5, N-METHYL-N-NITROSOUREA, 684-93-5 N,N-DIBUTYLNITROSAMINE, 924-16-3, Carcinogen: DIETHYLNITROSAMINE, 55-18-5, N-METHYL-N-NITROSOUREA, 684-93-5 N,N-DIBUTYLNITROSAMINE, 924-16-3, 0.5% IN DIET BEGINNING POST CARCINOGEN TREATMENT AND CONTINUING TO WK 40 (STUDY DURATION: 40 WK), Route [Inhibitor]: ORAL, Species: RAT, Strain/Sex: F344/MALE, Target Tissue: Type of Lesion: URINARY BLADDER: PAPILLOMA, Dose [Carcinogen]: 100 MG/KG DIETHYLNITROSAMINE ONCE FOLLOWED BY 20 MG/KG N-METHYL-N-NITROSOUREA ON D 2, 5, 8 AND 11 THEN 0.05% N-N-DIBUTYL, Promoter: NONE USED) was 4/16 (25%), 2/18 (11%), 56%, not calculated and the “tumour outcome (control, treated, inhibition, significance)” value (Carcinogen: DIETHYLNITROSAMINE, 55-18-5, N-METHYL-NITROSOUREA, 684-93-5, N,N'-DIMETHYLHYDRAZINE, 540-73-8, N-BUTYL-N-(4-HYDROX, Carcinogen: DIETHYLNITROSAMINE, 55-18-5, N-METHYL-NITROSOUREA, 684-93-5, N,N'-DIMETHYLHYDRAZINE, 540-73-8, N-BUTYL-N-(4-HYDROX, 200 MG/KG BW IN CORN OIL 3/WK FOR 6 WK BEGINNING POST CARCINOGEN TREATMENT (STUDY DURATION: 28 WK), Route [Inhibitor]: GAVAGE, Species: RAT, Strain/Sex: F344/MALE, Target Tissue: Type of Lesion: KIDNEY: NEPHROBLASTOMA, Dose [Carcinogen]: 100 MG/KG BW DEN ONCE, 20 MG/KG BW MNU ONCE ON D 2, 5, 8 AND 11, 40 MG/KG BW DMH ON D 14, 17, 20 AND 23, 0.05% BHBN I, Dose [Carcinogen]: 100 MG/KG BW DEN ONCE, 20 MG/KG BW MNU ONCE ON D 2, 5, 8 AND 11, 40 MG/KG BW DMH ON D 14, 17, 20 AND 23, 0.05% BHBN I, Promoter: NONE USED) was 5/20 (25%), 8/19 (42%), -68%, not calculated. For the same compound, the “tumour outcome (control, treated, inhibition, significance)” value (Carcinogen: DIETHYLNITROSAMINE, 55-18-5, N-METHYL-NITROSOUREA, 684-93-5, N,N'-DIMETHYLHYDRAZINE, 540-73-8, N-BUTYL-N-(4-HYDROX, Carcinogen: DIETHYLNITROSAMINE, 55-18-5, N-METHYL-NITROSOUREA, 684-93-5, N,N'-DIMETHYLHYDRAZINE, 540-73-8, N-BUTYL-N-(4-HYDROX, 200 MG/KG BW IN CORN OIL 3/WK FOR 6 WK BEGINNING POST CARCINOGEN TREATMENT (STUDY DURATION: 28 WK), Route [Inhibitor]: GAVAGE, Species: RAT, Strain/Sex: F344/MALE, Target Tissue: Type of Lesion: KIDNEY: RENAL CELL CARCINOMA, Dose [Carcinogen]: 100 MG/KG BW DEN ONCE, 20 MG/KG BW MNU ONCE ON D 2, 5, 8 AND 11, 40 MG/KG BW DMH ON D 14, 17, 20 AND 23, 0.05% BHBN I, Dose [Carcinogen]: 100 MG/KG BW DEN ONCE, 20 MG/KG BW MNU ONCE ON D 2, 5, 8 AND 11, 40 MG/KG BW DMH ON D 14, 17, 20 AND 23, 0.05% BHBN I, Promoter: NONE USED) was 1/20 (5%), 0/19 (0%), 100%, not calculated, the “tumour outcome (control, treated, inhibition, significance)” value (Carcinogen: N-NITROSOMETHYLBENZYLAMINE, 937-40-6, 10 MG/KG IN CORN OIL 1/WK FOR 5 WK BEGINNING 3 HR PRIOR TO CARCINOGEN TREATMENT (STUDY DURATION: 15 WK), Route [Inhibitor]: GAVAGE, Species: RAT, Strain/Sex: SPRAGUE-DAWLEY/MALE, Target Tissue: Type of Lesion: ESOPHAGUS: TUMOR, Dose [Carcinogen]: 3 MG/KG 1/WK FOR 5 WK, Promoter: NONE USED) was 96%, 90%, 6%, not significant and the “tumour outcome (control, treated, inhibition, significance)” value (Carcinogen: N-NITROSOMETHYLBENZYLAMINE, 937-40-6, 100 MG/KG IN CORN OIL 1/WK FOR 5 WK BEGINNING 3 HR PRIOR TO CARCINOGEN TREATMENT (STUDY DURATION: 15 WK), Route [Inhibitor]: GAVAGE, Species: RAT, Strain/Sex: SPRAGUE-DAWLEY/MALE, Target Tissue: Type of Lesion: ESOPHAGUS: TUMOR, Dose [Carcinogen]: 3 MG/KG 1/WK FOR 5 WK, Promoter: NONE USED) was 96%, 63%, 34%, p<0.05. For the same compound, the “tumour outcome (control, treated, inhibition, significance)” value (Carcinogen: N-NITROSOMETHYLBENZYLAMINE, 937-40-6, 200 MG/KG IN CORN OIL 1/WK FOR 5 WK BEGINNING POST CARCINOGEN TREATMENT (STUDY DURATION: 15 WK), Route [Inhibitor]: GAVAGE, Species: RAT, Strain/Sex: SPRAGUE-DAWLEY/MALE, Target Tissue: Type of Lesion: ESOPHAGUS: TUMOR, Dose [Carcinogen]: 3 MG/KG 1/WK FOR 5 WK, Promoter: NONE USED) was 96%, 96%, 0%, not significant, the outcome (Carcinogen: N-NITROSOMETHYLBENZYLAMINE, 937-40-6, Dose [Inhibitor]: 200 MG/KG BW IN CORN OIL 1/WK FOR 5 WK BEGINNING 3 HR PRIOR TO EACH CARCINOGEN DOSE (STUDY DURATION: 15 WK), Route [Inhibitor]: GAVAGE, Species: RAT, Strain/Sex: SPRAGUE-DAWLEY/MALE, Target Tissue: Type of Lesion: ESOPHAGUS: TUMOR, Dose [Carcinogen]: 3.5 MG/KG BW 1/WK FOR 5 WK, Promoter: NONE USED) was 79%, 0, 100%, p<0.001 and the “tumour outcome (control, treated, inhibition, significance)” value (Carcinogen: VINYL CARBAMATE, 15805-73-9, 8 UMOL IN 0.1 MOLAR STERILIZED POTASSIUM BUFFER ONCE 10 MIN PRIOR TO CARCINOGEN DOSE (STUDY DURATION: 22 WK), Route [Inhibitor]: GAVAGE, Species: MOUSE, Strain/Sex: ICR/FEMALE, Target Tissue: Type of Lesion: SKIN: PAPILLOMA, Dose [Carcinogen]: 5.8 UMOL IN 0.2 ML ACETONE ONCE, Promoter: 12-O-TETRADECANOYLPHORBOL 13-ACETATE, 16561-29-8) was 70%, 57%, 19%, not significant. For the same compound, the “tumour outcome (control, treated, inhibition, significance)” value (Carcinogen: VINYL CARBAMATE, 15805-73-9, 200 MG/KG BW ONCE AT 2 HR AND 1 D PRIOR TO CARCINOGEN DOSE (STUDY DURATION: 22 WK), Route [Inhibitor]: GAVAGE, Species: MOUSE, Strain/Sex: CD-1/FEMALE, Target Tissue: Type of Lesion: SKIN: PAPILLOMA, Dose [Carcinogen]: 11.5 UMOL IN 0.2 ML ACETONE ONCE, Promoter: 12-O-TETRADECANOYLPHORBOL-13-ACETATE, 16561-29-8) was 58%, 29%, 50%, not calculated.
